Source: the supplement of paper PMC8671470

Columns and labels:
Settings in all cases: 72 h
[1] = system: LAMA-84; experiment: cell viability (% survival relative to DMSO control, bortezomib = 0%); higher = less cytotoxic
Outline: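 Percent survival is reported as the mean of duplicate wells. Cells from 10 AML and 5 CML lines were plated in 384-well plates containing compounds at 1, 10, 100, 1000 or 10000 nM and kept for 72 h at 37 °C in 5% CO2. Readout used CellTiter-Glo luminescence, scaled so that vehicle equals 100% and a 10 µM positive control equals 0%.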

[2] = system: KG-1
Outline: (§1)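 In 384-well plates holding acoustically pre-printed compounds at five tenfold doses from 1 to 10,000 nM, in duplicate, fifteen myeloid leukaemia cell lines were grown in RPMI 1640 for 72 h at 37 °C with 5% CO2. Luminescent ATP viability was scaled between vehicle and a positive control at 10 µM. The IC50 was then taken from log-logistic dose–response fits with four parameters.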

[3] = system: KU-812
Outline: as §1

[4] = system: Mono-Mac-6
Outline: as §1

[5] = system: KCL-22
Outline: as §1

[6] = system: THP-1
Outline: as §1

[7] = system: HEL
Outline: as §1

[8] = system: MV4-11
Outline: as §1

[9] = system: BV-173
Outline: as §1

[10] = system: MOLM-13
Outline: as §1

[11] = system: K-562
Outline: as §1

[12] = system: NOMO-1
Outline: as §1

[13] = system: HL-60
Outline: as §1

[14] = system: ML-2
Outline: as §1

[15] = system: LAMA-84
Outline: as §1

[16] = system: SHI-1
Outline: as §1

Row | Structure (SMILES) | cell viability ([1]; 1 nM) | cell viability ([1]; 10 nM) | cell viability ([1]; 100 nM) | cell viability ([1]; 1000 nM) | cell viability ([1]; 10000 nM) | IC50 (cell viability) [2] | IC50 (cell viability) [3] | IC50 (cell viability) [4] | IC50 (cell viability) [5] | IC50 (cell viability) [6] | IC50 (cell viability) [7] | IC50 (cell viability) [8] | IC50 (cell viability) [9] | IC50 (cell viability) [10] | IC50 (cell viability) [11] | IC50 (cell viability) [12] | IC50 (cell viability) [13] | IC50 (cell viability) [14] | IC50 (cell viability) [15] | IC50 (cell viability) [16]
1 | OCCN1CCN(CCCN2c3ccccc3Sc3ccc(Cl)cc32)CC1 [Perphenazine] | 105% | 103% | 93.5% | 97.2% | 47.6% | 8.85 µM | 6.71 µM | > 10 µM | 8.23 µM | > 10 µM | > 10 µM | 3.54 µM | 5.91 µM | 5.77 µM | 2.87 µM | > 10 µM | 5.06 µM | 7.38 µM | 9.39 µM | > 10 µM
2 | C=CCc1ccc2c(c1O)C(=O)c1ccccc1C2=O [R162] | 104% | 97.2% | 94.7% | 103% | 88.7% | > 10 µM | > 10 µM | > 10 µM | > 10 µM | > 10 µM | > 10 µM | > 10 µM | > 10 µM | > 10 µM | > 10 µM | > 10 µM | > 10 µM | > 10 µM | > 10 µM | > 10 µM
3 | O=C(c1ccc(OCCN2CCCCC2)cc1)c1c(-c2ccc(O)cc2)sc2cc(O)ccc12 [Raloxifene] | 106% | 102% | 94.9% | 95.5% | 87.9% | > 10 µM | > 10 µM | > 10 µM | > 10 µM | > 10 µM | > 10 µM | > 10 µM | > 10 µM | > 10 µM | > 10 µM | > 10 µM | > 10 µM | > 10 µM | > 10 µM | > 10 µM
4 | NC(=O)c1ncn([C@@H]2O[C@H](CO)[C@@H](O)[C@H]2O)n1 [Ribavirin] | 84.9% | 98.2% | 101% | 110% | 89.8% | > 10 µM | > 10 µM | > 10 µM | > 10 µM | > 10 µM | > 10 µM | > 10 µM | > 10 µM | > 10 µM | > 10 µM | > 10 µM | > 10 µM | > 10 µM | > 10 µM | > 10 µM
5 | Nc1ncnc2c1ncn2[C@@H]1O[C@H](CSCC[C@H](N)C(=O)O)[C@@H](O)[C@H]1O [S-Adenosyl Homocysteine] | 105% | 110% | 100% | 99.4% | 103% | > 10 µM | > 10 µM | > 10 µM | > 10 µM | > 10 µM | > 10 µM | > 10 µM | > 10 µM | > 10 µM | > 10 µM | > 10 µM | > 10 µM | > 10 µM | > 10 µM | > 10 µM
6 | CCCc1nn(C)c2c(O)nc(-c3cc(S(=O)(=O)N4CCN(C)CC4)ccc3OCC)nc12 [Sildenafil] | 91.3% | 98.8% | 92.1% | 95% | 103% | > 10 µM | > 10 µM | > 10 µM | > 10 µM | > 10 µM | > 10 µM | > 10 µM | > 10 µM | > 10 µM | > 10 µM | > 10 µM | > 10 µM | > 10 µM | > 10 µM | > 10 µM
7 | Cc1coc2c1C(=O)C(=O)c1c-2ccc2c(C)cccc12 [Tanshinone I] | 104% | 105% | 101% | 108% | 95.4% | > 10 µM | > 10 µM | > 10 µM | > 10 µM | > 10 µM | > 10 µM | > 10 µM | > 10 µM | > 10 µM | > 10 µM | > 10 µM | > 10 µM | > 10 µM | > 10 µM | > 10 µM
8 | CN(C/C=C/C#CC(C)(C)C)Cc1cccc2ccccc12 [Terbinafine] | 104% | 97.7% | 110% | 101% | 93.9% | > 10 µM | > 10 µM | > 10 µM | > 10 µM | > 10 µM | > 10 µM | > 10 µM | > 10 µM | > 10 µM | > 10 µM | > 10 µM | > 10 µM | > 10 µM | > 10 µM | > 10 µM
9 | CCOC(=O)N1c2ccc(C(F)(F)F)cc2[C@@H](N(Cc2cc(C(F)(F)F)cc(C(F)(F)F)c2)C(=O)OC)C[C@H]1CC [Torcetrapib] | 116% | 103% | 110% | 95.6% | 110% | 9.96 µM | > 10 µM | > 10 µM | > 10 µM | > 10 µM | > 10 µM | 7.03 µM | 0.652 µM | > 10 µM | > 10 µM | > 10 µM | > 10 µM | 7.83 µM | > 10 µM | > 10 µM
10 | Oc1cc(Cl)ccc1Oc1ccc(Cl)cc1Cl [Triclosan] | 102% | 91.1% | 103% | 108% | 66.5% | > 10 µM | > 10 µM | > 10 µM | > 10 µM | > 10 µM | > 10 µM | > 10 µM | > 10 µM | > 10 µM | > 10 µM | > 10 µM | > 10 µM | > 10 µM | > 10 µM | > 10 µM
11 | COc1cc2c(NC3CCN(C)CC3)nc(N3CCCN(C)CC3)nc2cc1OCCCN(C)C [UNC0224] | 91.1% | 106% | 96.5% | 95.9% | 95.8% | > 10 µM | > 10 µM | > 10 µM | > 10 µM | > 10 µM | > 10 µM | > 10 µM | > 10 µM | > 10 µM | > 10 µM | > 10 µM | > 10 µM | > 10 µM | > 10 µM | > 10 µM
12 | CC(C)C[C@H](NC(=O)[C@@H](O)[C@H](N)Cc1ccccc1)C(=O)O [Ubenimex] | 115% | 101% | 103% | 101% | 101% | > 10 µM | > 10 µM | > 10 µM | > 10 µM | > 10 µM | > 10 µM | > 10 µM | > 10 µM | > 10 µM | > 10 µM | > 10 µM | > 10 µM | > 10 µM | > 10 µM | > 10 µM
13 | O=P(O)(O)C(O)(Cn1ccnc1)P(=O)(O)O [Zoledronic acid] | 99.5% | 104% | 100% | 98.2% | 99.2% | > 10 µM | > 10 µM | > 10 µM | > 10 µM | > 10 µM | > 10 µM | > 10 µM | > 10 µM | > 10 µM | > 10 µM | > 10 µM | > 10 µM | > 10 µM | > 10 µM | > 10 µM
